From patent US20250376461A1, “INDAZOLE DERIVATIVES FOR TREATING TRPM3-MEDIATED DISORDERS” (Katholieke Universiteit Leuven, priority 2022, published 2025)
pIC50: −log10 of the molar value.

Target: T1, mouse TRPM3α2 (mTRPM3) ion channel (Mus musculus, UniProt J9SQF3)
T1 construct: expressed in transfected cells; host or cells: flip-in HEK293
Experiment: TRPM3 ion channel driven Ca2+ uptake, Fluo-4 AM assay, mTRPM3alpha2 overexpressing flip-in HEK293 cells stimulated with pregnenolone sulfate (50 μM)
Type: cell-based
Settings: mTRPM3 overexpressing HEK293 cells stimulated with pregnenolone sulfate (50 μM), activity ranges A, B, C
Outline: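 Flip-in HEK293 cells overexpressing mTRPM3α2, loaded with Fluo-4 AM, added at ±2000 cells/well to plates holding compound plus 50 μM pregnenolone sulfate in Ca2+-containing Krebs buffer. Fluorescence (ex 485/em 535 nm) read immediately. Percent inhibition normalised between vehicle and positive-control inhibitor; IC50 derived.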

T1 sequence (J9SQF3 1-1709 isoform J9SQF3-12): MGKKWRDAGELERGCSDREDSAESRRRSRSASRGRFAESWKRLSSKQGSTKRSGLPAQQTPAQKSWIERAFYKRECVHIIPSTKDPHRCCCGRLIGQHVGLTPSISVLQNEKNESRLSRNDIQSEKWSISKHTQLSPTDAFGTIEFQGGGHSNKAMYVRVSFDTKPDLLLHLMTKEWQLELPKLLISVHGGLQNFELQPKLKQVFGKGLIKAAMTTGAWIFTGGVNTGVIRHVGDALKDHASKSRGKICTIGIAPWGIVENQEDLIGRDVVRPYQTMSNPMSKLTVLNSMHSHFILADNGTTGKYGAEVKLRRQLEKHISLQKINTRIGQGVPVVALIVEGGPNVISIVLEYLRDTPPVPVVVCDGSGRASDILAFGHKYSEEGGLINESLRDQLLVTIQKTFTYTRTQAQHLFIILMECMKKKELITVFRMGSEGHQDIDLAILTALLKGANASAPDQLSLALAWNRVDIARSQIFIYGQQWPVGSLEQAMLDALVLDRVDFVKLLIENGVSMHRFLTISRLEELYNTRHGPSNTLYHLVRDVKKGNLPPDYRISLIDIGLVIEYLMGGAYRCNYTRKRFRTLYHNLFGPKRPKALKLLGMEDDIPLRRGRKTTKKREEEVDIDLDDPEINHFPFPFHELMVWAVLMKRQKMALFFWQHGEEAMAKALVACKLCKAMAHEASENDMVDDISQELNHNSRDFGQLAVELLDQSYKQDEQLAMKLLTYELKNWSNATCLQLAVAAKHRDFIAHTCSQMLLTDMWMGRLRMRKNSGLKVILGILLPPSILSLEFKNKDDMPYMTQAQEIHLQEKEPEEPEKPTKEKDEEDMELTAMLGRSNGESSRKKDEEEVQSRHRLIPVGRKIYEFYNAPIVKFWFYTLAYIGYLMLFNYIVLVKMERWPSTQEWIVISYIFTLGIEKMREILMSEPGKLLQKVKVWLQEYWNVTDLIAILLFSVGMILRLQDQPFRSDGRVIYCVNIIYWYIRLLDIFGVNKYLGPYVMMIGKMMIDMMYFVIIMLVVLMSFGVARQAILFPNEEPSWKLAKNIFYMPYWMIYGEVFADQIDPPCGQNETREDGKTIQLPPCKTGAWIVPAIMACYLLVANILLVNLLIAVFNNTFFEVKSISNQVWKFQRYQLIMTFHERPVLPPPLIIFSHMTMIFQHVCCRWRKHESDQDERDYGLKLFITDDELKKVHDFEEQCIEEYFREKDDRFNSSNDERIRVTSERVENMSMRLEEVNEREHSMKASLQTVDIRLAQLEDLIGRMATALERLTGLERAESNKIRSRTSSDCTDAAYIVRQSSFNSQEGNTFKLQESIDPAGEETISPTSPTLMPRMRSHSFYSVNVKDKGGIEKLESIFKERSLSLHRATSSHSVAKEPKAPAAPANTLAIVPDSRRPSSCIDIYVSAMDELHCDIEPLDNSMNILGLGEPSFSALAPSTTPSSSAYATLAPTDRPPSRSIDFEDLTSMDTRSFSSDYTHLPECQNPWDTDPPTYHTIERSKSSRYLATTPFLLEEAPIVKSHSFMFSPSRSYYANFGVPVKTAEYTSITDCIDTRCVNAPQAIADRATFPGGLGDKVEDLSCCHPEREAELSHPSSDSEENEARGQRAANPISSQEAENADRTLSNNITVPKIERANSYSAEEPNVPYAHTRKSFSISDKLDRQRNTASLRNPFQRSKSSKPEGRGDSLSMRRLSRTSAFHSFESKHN

Compound	pIC50
Cc1ncsc1COc1ccc2nn(C)c(C(=O)O)c2c1 [Cpd 199, 2-methyl-5-[(4-methyl-1,3-thiazol-5-yl)methoxy]-2H-indazole-3-carboxylic acid]	< 4.70
Cn1nc2ccc(OCc3ccccn3)cc2c1C(=O)NCc1c(F)cccc1C(F)(F)F [Cpd 209, N-{[2-fluoro-6-(trifluoromethyl)phenyl]methyl}-2-methyl-5-[(pyridin-2-yl)methoxy]-2H-indazole-3-carboxamide]	< 4.70
Cn1nc2ccc(OCc3ccccn3)cc2c1C(=O)NCc1cccc(OC(F)F)c1 [Cpd 210, N-{[3-(difluoromethoxy)phenyl]methyl}-2-methyl-5-[(pyridin-2-yl)methoxy]-2H-indazole-3-carboxamide]	< 4.70
C=C(Nc1cc(C(F)(F)F)cnc1O)c1c2cc(OCc3ccccn3)ccc2nn1C [Cpd 218, 3-[(1-{2-methyl-5-[(pyridin-2-yl)methoxy]-2H-indazol-3-yl}ethenyl)amino]-5-(trifluoromethyl)pyridin-2-ol]	< 4.70
O=C1NCCn2nc3ccc(OCc4ccccc4F)cc3c21 [Cpd 256, 9-[(2-fluorophenyl)methoxy]-1H,2H,3H,4H-pyrazino[1,2-b]indazol-1-one]	< 4.70
O=C1NCCn2nc3ccc(OCc4ccccc4)cc3c21 [Cpd 257, 9-(benzyloxy)-1H,2H,3H,4H-pyrazino[1,2-b]indazol-1-one]	< 4.70
O=C1c2c3cc(OCc4ccccc4F)ccc3nn2CCN1C(CO)CO [Cpd 260, 2-(1,3-dihydroxypropan-2-yl)-9-[(2-fluorophenyl)methoxy]-1H,2H,3H,4H-pyrazino[1,2-b]indazol-1-one]	> 6.00
O=C1c2c3cc(OCc4ccccc4F)ccc3nn2CCN1CCO [Cpd 261, 9-[(2-fluorophenyl)methoxy]-2-(2-hydroxyethyl)-1H,2H,3H,4H-pyrazino[1,2-b]indazol-1-one]	4.70 to 6.00
Cn1nc2ccc(OCc3ccccc3F)cc2c1C(=O)NC(CO)CO [Cpd 262, N-(1,3-dihydroxypropan-2-yl)-5-[(2-fluorophenyl)methoxy]-2-methyl-2H-indazole-3-carboxamide]	4.70 to 6.00

The remaining lines, values ahead:

pIC50	Compound
< 4.70	Cn1nc2ccc(OCc3ccccn3)cc2c1C(=O)NCC(F)(F)F [Cpd 204, 2-methyl-5-[(pyridin-2-yl)methoxy]-N-(2,2,2-trifluoroethyl)-2H-indazole-3-carboxamide]
< 4.70	Cn1nc2ccc(OCc3ccccn3)cc2c1C(=O)NCCO [Cpd 205, N-(2-hydroxyethyl)-2-methyl-5-[(pyridin-2-yl)methoxy]-2H-indazole-3-carboxamide]
4.70 to 6.00	Cn1nc2ccc(OCc3ccccn3)cc2c1C(=O)NCc1ncc[nH]1 [Cpd 206, N-[(1H-imidazol-2-yl)methyl]-2-methyl-5-[(pyridin-2-yl)methoxy]-2H-indazole-3-carboxamide]
< 4.70	CN(C)CC(C)(C)CNC(=O)c1c2cc(OCc3ccccn3)ccc2nn1C [Cpd 207, N-[3-(dimethylamino)-2,2-dimethylpropyl]-2-methyl-5-[(pyridin-2-yl)methoxy]-2H-indazole-3-carboxamide]
< 4.70	Cn1nc2ccc(OCc3ccccn3)cc2c1C(=O)NCC(F)(F)c1ccccc1 [Cpd 208, N-(2,2-difluoro-2-phenylethyl)-2-methyl-5-[(pyridin-2-yl)methoxy]-2H-indazole-3-carboxamide]
4.70 to 6.00	Cn1nc2ccc(OCc3ccccn3)cc2c1C(=O)NC1(CO)CC(F)(F)C1 [Cpd 217, N-[3,3-difluoro-1-(hydroxymethyl)cyclobutyl]-2-methyl-5-[(pyridin-2-yl)methoxy]-2H-indazole-3-carboxamide]
< 4.70	Cn1nc2ccc(OCc3ccccn3)cc2c1C(=O)NC1(CO)COC(C)(C)OC1 [Cpd 219, N-[5-(hydroxymethyl)-2,2-dimethyl-1,3-dioxan-5-yl]-2-methyl-5-[(pyridin-2-yl)methoxy]-2H-indazole-3-carboxamide]
> 6.00	Cn1nc2ccc(OCc3ccccn3)cc2c1C(=O)NC(CO)(CCF)C(N)=O (stereo not shown) [Cpd 234, 4-fluoro-2-(hydroxymethyl)-2-({2-methyl-5-[(pyridin-2-yl)methoxy]-2H-indazol-3-yl}formamido)butanamide]
< 4.70	Cn1nc2ccc(OCc3ccccn3)cc2c1C(=O)NC(CO)Cn1ccnc1C(F)(F)F (stereo not shown) [Cpd 242, N-{1-hydroxy-3-[2-(trifluoromethyl)-1H-imidazol-1-yl]propan-2-yl}-2-methyl-5-[(pyridin-2-yl)methoxy]-2H-indazole-3-carboxamide]
4.70 to 6.00	Cn1nc2ccc(OCc3ccccn3)cc2c1C(=O)NC(CO)CO [Cpd 259, N-(1,3-dihydroxypropan-2-yl)-2-methyl-5-[(pyridin-2-yl)methoxy]-2H-indazole-3-carboxamide]
